This note sets out measurements from patent US10617680B2 (CELGENE QUANTICEL RESEARCH, INC., priority 2017, dated 2020).

The IC50 is the concentration needed to halve the response being measured.

Some results are limits rather than exact numbers.

Sequence of CBP (Q92793 1081-1197): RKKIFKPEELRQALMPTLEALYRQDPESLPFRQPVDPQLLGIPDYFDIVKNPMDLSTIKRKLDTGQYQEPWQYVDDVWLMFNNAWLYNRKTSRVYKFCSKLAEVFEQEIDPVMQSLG

The test addresses CBP (Homo sapiens (Human), UniProt Q92793). Briefly: In vitro CBP inhibition (AlphaScreen, biotinylated H4-tetraacetyl peptide). The format is binding. The conditions noted are these: AlphaScreen, Table 29; read-out: CBP IC50. The method in brief:
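His-tagged CBP expressed in E. coli (50 nM final) incubated with biotinylated H4K5/8/12/16(Ac) peptide (20 nM final) in 50 mM HEPES pH 7.3, 10 mM NaCl, 0.25 mM TCEP, 0.1% BSA, 0.005% Brij-35, 0.4% DMSO, 20 min at room temp.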
For orientation: In Alpha technology, singlet oxygen from a donor bead excites a nearby acceptor bead.
With `Cn1cc(-c2cnn(-c3cccc(Cl)c3C#N)c2)c(-c2ccc(NCC3CC3)nc2)cc1=O` [Example 348, 2-chloro-6-(4-{6-[(cyclopropylmethyl)amino]-1′-methyl-6′-oxo-1′,6′-dihydro-[3,4′-bipyridine]-3′-yl}-1H-pyrazol-1-yl)benzonitrile], the IC50 was less than 0.5 µM.
For `Cn1cc(-c2cnn(-c3cccc(Cl)c3C#N)c2)c(-c2ccc(N3CCCC3)nc2)cc1=O` [Example 349, 2-chloro-6-[4-[1-methyl-6-oxo-4-(6-pyrrolidin-1-yl-3-pyridyl)-3-pyridyl]pyrazol-1-yl]benzonitrile] the value was less than 0.5 µM; for `Cn1cc(-c2cnn(-c3cccc(F)c3C#N)c2)c(-c2ccc(N3CCCC3)nc2)cc1=O` [Example 350, 2-fluoro-6-[4-[1-methyl-6-oxo-4-(6-pyrrolidin-1-yl-3-pyridyl)-3-pyridyl]pyrazol-1-yl]benzonitrile], less than 0.5 µM.
For `CC(C)Nc1ccc(-c2cc(=O)n(C)cc2-c2cnn(-c3cccc(F)c3C#N)c2)cn1` [Example 351, 2-fluoro-6-(4-(6-(isopropylamino)-1′-methyl-6′-oxo-1′,6′-dihydro-[3,4′-bipyridin]-3′-yl)-1H-pyrazol-1-yl)benzonitrile] the value was less than 0.5 µM; for `Cn1cc(-c2cnn(-c3cccc(Cl)c3C#N)c2)c(-c2ccc(OC3CCCC3)nc2)cc1=O` [Example 352, 2-chloro-6-[4-[4-[6-(cyclopentoxy)-3-pyridyl]-1-methyl-6-oxo-3-pyridyl]pyrazol-1-yl]benzonitrile], less than 0.5 µM; for `Cn1cc(-c2cnn(-c3cccc(F)c3C#N)c2)c(-c2ccc(OC(F)F)nc2)cc1=O` [Example 353, 2-(4-(6-(difluoromethoxy)-1′-methyl-6′-oxo-1′,6′-dihydro-[3,4′-bipyridin]-3′-yl)-1H-pyrazol-1-yl)-6-fluorobenzonitrile], less than 0.5 µM.
As for `Cn1cc(-c2cnn(-c3cccc(Cl)c3C#N)c2)c(-c2ccc(OC(F)F)nc2)cc1=O` [Example 354, 2-chloro-6-(4-(6-(difluoromethoxy)-1′-methyl-6′-oxo-1′,6′-dihydro-[3,4′-bipyridin]-3′-yl)-1H-pyrazol-1-yl)benzonitrile], the figure is less than 0.5 µM.
Take `CN(C)CCCOc1ccc(-c2cc(=O)n(C)cc2-c2cnn(-c3ccccc3C#N)c2)cn1` [Example 355, 2-(4-(6-(3-(dimethylamino)propoxy)-1′-methyl-6′-oxo-1′,6′-dihydro-[3,4′-bipyridin]-3′-yl)-1H-pyrazol-1-yl)benzonitrile]: the IC50 is less than 0.5 µM.
As for `Cn1cc(-c2cnn(-c3cccc(Cl)c3C#N)c2)c(-c2ccc(OCC3CC3)nc2)cc1=O` [Example 357, 2-chloro-6-[4-[4-[6-(cyclopropylmethoxy)-3-pyridyl]-1-methyl-6-oxo-3-pyridyl]pyrazol-1-yl]benzonitrile], the figure is less than 0.5 µM.
Regarding `CC(C)Oc1ccc(-c2cc(=O)n(C)cc2-c2cnn(-c3cccc(F)c3C#N)c2)cn1` [Example 358, 2-fluoro-6-[4-[4-(6-isopropoxy-3-pyridyl)-1-methyl-6-oxo-3-pyridyl]pyrazol-1-yl]benzonitrile], the IC50 is less than 0.5 µM.
For `CCOc1ccc(-c2cc(=O)n(C)cc2-c2cnn(-c3cccc(F)c3C#N)c2)cn1` [Example 359, 2-(4-(6-ethoxy-1′-methyl-6′-oxo-1′,6′-dihydro-[3,4′-bipyridin]-3′-yl)-1H-pyrazol-1-yl)-6-fluorobenzonitrile] the value was less than 0.5 µM; for `Cn1cc(-c2cnn(-c3cccc(F)c3C#N)c2)c(-c2ccc(OCC3CC3)nc2)cc1=O` [Example 360, 2-[4-[4-[6-(cyclopropylmethoxy)-3-pyridyl]-1-methyl-6-oxo-3-pyridyl]pyrazol-1-yl]-6-fluoro-benzonitrile], less than 0.5 µM; for `Cn1cc(-c2cnn(-c3cccc(F)c3C#N)c2)c(-c2ccc(OC3CCCC3)nc2)cc1=O` [Example 361], less than 0.5 µM.
As for `Cn1cc(-c2cnn(-c3cccc(F)c3C#N)c2)c(-c2ccc(OC3CC3)nc2)cc1=O` [Example 362, 2-[4-[4-[6-(cyclopropoxy)-3-pyridyl]-1-methyl-6-oxo-3-pyridyl)pyrazol-1-yl]-6-fluoro-benzonitrile], the figure is less than 0.5 µM; as for `CC(C)Oc1ccc(-c2cc(=O)n(C)cc2-c2cnn(-c3cccc(Cl)c3C#N)c2)cn1` [Example 363, 2-chloro-6-[4-[4-(6-isopropoxy-3-pyridyl)-1-methyl-6-oxo-3-pyridyl]pyrazol-1-yl]benzonitrile], less than 0.5 µM.
For `Cn1cc(-c2cnn(-c3cccc(Cl)c3C#N)c2)c(-c2ccc(OC3CC3)nc2)cc1=O` [Example 364, 2-chloro-6-[4-[4-[6-(cyclopropoxy)-3-pyridyl]-1-methyl-6-oxo-3-pyridyl]pyrazol-1-yl]benzonitrile] the value was less than 0.5 µM; for `CCOc1ccc(-c2cc(=O)n(C)cc2-c2cnn(-c3cccc(Cl)c3C#N)c2)cn1` [Example 365, 2-chloro-6-(4-(6-ethoxy-1′-methyl-6′-oxo-1′,6′-dihydro-[3,4′-bipyridin]-3′-yl)-1H-pyrazol-1-yl)benzonitrile], less than 0.5 µM.
For the compound `Cn1cc(-c2cnn(-c3cccc(Cl)c3C#N)c2)c(-c2ccc(C3CC3)nc2)cc1=O` [Example 366, 2-chloro-6-[4-[4-(6-cyclopropyl-3-pyridyl)-1-methyl-6-oxo-3-pyridyl]pyrazol-1-yl]benzonitrile], the IC50 was less than 0.5 µM.
For `Cc1ccc(-c2cc(=O)n(C)cc2-c2cnn(-c3cccc(F)c3C#N)c2)cn1` [Example 367, 2-(4-(1′,6-dimethyl-6′-oxo-1′,6′-dihydro-[3,4′-bipyridin]-3′-yl)-1H-pyrazol-1-yl)-6-fluorobenzonitrile] the value was less than 0.5 µM; for `Cn1cc(-c2cnn(-c3cccc(F)c3C#N)c2)c(-c2ccc(C(F)(F)F)nc2)cc1=O` [Example 368, 2-fluoro-6-(4-(1′-methyl-6′-oxo-6-(trifluoromethyl)-1′,6′-dihydro-[3,4′-bipyridin]-3′-yl)-1H-pyrazol-1-yl)benzonitrile], less than 0.5 µM.
Regarding `Cc1ccc(-c2cc(=O)n(C)cc2-c2cnn(-c3cccc(Cl)c3C#N)c2)cn1` [Example 369, 2-chloro-6-(4-(1′,6-dimethyl-6′-oxo-1′,6′-dihydro-[3,4′-bipyridin]-3′-yl)-1H-pyrazol-1-yl)benzonitrile], the IC50 was less than 0.5 µM.
As for `Cn1cc(-c2cnn(-c3cccc(Cl)c3C#N)c2)c(-c2ccc(C(F)(F)F)nc2)cc1=O` [Example 370, 2-chloro-6-(4-(1′-methyl-6′-oxo-6-(trifluoromethyl)-1′,6′-dihydro-[3,4′-bipyridin]-3′-yl)-1H-pyrazol-1-yl)benzonitrile], the figure is less than 0.5 µM.
As to `CCc1ccc(-c2cc(=O)n(C)cc2-c2cnn(-c3cccc(Cl)c3C#N)c2)cn1` [Example 371, 2-chloro-6-(4-(6-ethyl-1′-methyl-6′-oxo-1′,6′-dihydro-[3,4′-bipyridin]-3′-yl)-1H-pyrazol-1-yl)benzonitrile], the IC50 is less than 0.5 µM.
As for `CCc1ccc(-c2cc(=O)n(C)cc2-c2cnn(-c3cccc(F)c3C#N)c2)cn1` [Example 372, 2-(4-(6-ethyl-1′-methyl-6-oxo-1′,6′-dihydro-[3,4′-bipyridin]-3′-yl)-1H-pyrazol-1-yl)-6-fluorobenzonitrile], the figure is less than 0.5 µM.
As for `CCc1ccc(-c2cc(=O)n(C)cc2-c2cnn(-c3ccccc3C#N)c2)cn1` [Example 373, 2-(4-(6-ethyl-1-methyl-6′-oxo-1′,6′-dihydro-[3,4′-bipyridin]-3′-yl)-1H-pyrazol-1-yl)benzonitrile], the figure is less than 0.5 µM; as for `Cn1cc(-c2cnn(-c3cccc(F)c3C#N)c2)c(-c2ccc(C3CC3)nc2)cc1=O` [Example 374, 2-[4-[4-(6-cyclopropyl-3-pyridyl)-1-methyl-6-oxo-3-pyridyl]pyrazol-1-yl]-6-fluoro-benzonitrile], less than 0.5 µM; as for `CC(C)c1ccc(-c2cc(=O)n(C)cc2-c2cnn(-c3cccc(F)c3C#N)c2)cn1` [Example 375, 2-fluoro-6-[4-[4-(6-isopropyl-3-pyridyl)-1-methyl-6-oxo-3-pyridyl]pyrazol-1-yl]benzonitrile], less than 0.5 µM.
As for `CC(C)c1ccc(-c2cc(=O)n(C)cc2-c2cnn(-c3cccc(Cl)c3C#N)c2)cn1` [Example 376, 2-chloro-6-[4-[4-(6-isopropyl-3-pyridyl)-1-methyl-6-oxo-3-pyridyl]pyrazol-1-yl]benzonitrile], the figure is less than 0.5 µM; as for `Cc1ccc(-c2cc(=O)n(C)cc2-c2cnn(-c3ccccc3C#N)c2)cn1` [Example 377, 2-(4-(1′,6-dimethyl-6′-oxo-1′,6′-dihydro-[3,4′-bipyridin]-3′-yl)-1H-pyrazol-1-yl)benzonitrile], less than 0.5 µM.
In the case of `Cn1cc(-c2cnn(-c3cccc(F)c3C#N)c2)c(-c2ccc(C3CCCC3)nc2)cc1=O` [Example 378, 2-(4-(6-cyclopentyl-1′-methyl-6′-oxo-1′,6′-dihydro-[3,4′-bipyridin]-3′-yl)-1H-pyrazol-1-yl)-6-fluorobenzonitrile], the IC50 is less than 0.5 µM.
For `Cn1cc(-c2cnn(-c3cccc(Cl)c3C#N)c2)c(-c2ccc(C3CCCC3)nc2)cc1=O` [Example 379, 2-chloro-6-(4-(6-cyclopentyl-1′-methyl-6′-oxo-1′,6′-dihydro-[3,4′-bipyridin]-3′-yl)-1H-pyrazol-1-yl)benzonitrile] the value was less than 0.5 µM.
As for `Cn1ccc(-c2cc(=O)n(C)cc2-c2cnn(-c3cccc(C4CC4)c3C#N)c2)cc1=O` [Example 380, 2-cyclopropyl-6-[4-[1-methyl-4-(1-methyl-2-oxo-4-pyridyl)-6-oxo-3-pyridyl]pyrazol-1-yl]benzonitrile], the figure is less than 0.5 µM.
As for `Cn1cc(-c2cnn(-c3cccc(C4CC4)c3C#N)c2)c(-c2ccn(CC3CC3)c(=O)c2)cc1=O` [Example 381, 2-cyclopropyl-6-[4-[4-[1-(cyclopropylmethyl)-2-oxo-4-pyridyl]-1-methyl-6-oxo-3-pyridyl]pyrazol-1-yl]benzonitrile], the figure is less than 0.5 µM.
